Reference: patent US11214803B2, “Modulators of YAP1 expression” (Ionis Pharmaceuticals, Inc., priority 2019, dated 2022)
Strand notation (5' to 3'): a small letter for the sugar, then the base; units joined by * are phosphorothioate-linked, units joined directly phosphodiester-linked; [ ] holds rarer units or linkages, { } end groups; capitals alone tell only the bases. k = constrained ethyl (cEt); [5mC] = 5-methylcytosine; d = 2'-deoxy (DNA)

Test system: Yap1 mRNA
Experiment: Antisense inhibition of human Yap1 in A-431 cells by cEt gapmers, single dose (Example 2, RTS4814)
Assay type: cell-based
How it was run: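 Read-out is Yap1 mRNA as percent of untreated cells, by real-time RT-PCR (probe set RTS4814) normalized to total RNA via RIBOGREEN. Cells were A-431 dosed with 2,000 nM gapmer without transfection for approximately 48 hours.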

[1] = Table 33, Yap1 mRNA, percent of untreated control, 3-10-3 cEt gapmers targeting SEQ ID NO.: 1, and 2
[2] = Table 19, A-431 cells, 5,000 cells per well, free uptake, 2,000 nM modified oligonucleotide, approx. 48 hours, RTS4814, normalized to RIBOGREEN, Yap1 mRNA as percent of untreated control
[3] = Table 5, A-431 cells, 5,000 cells per well, free uptake, 2,000 nM modified oligonucleotide, approx. 48 hours, RTS4814, normalized to RIBOGREEN, Yap1 mRNA relative to untreated control cells
[4] = Table 22, Yap1 mRNA as percent of untreated control, 3-10-3 cEt gapmers, single dose
[5] = A-431 cells, 5,000 cells per well, free uptake, 2,000 nM modified oligonucleotide, approx. 48 hours, RTS4814, normalized to RIBOGREEN, Table 4, asterisk (*) = targets amplicon region of primer probe set
[6] = Table 24, Yap1 mRNA as percent of untreated control, 3-10-3 cEt gapmers targeting SEQ ID NO.: 1, and 2
[7] = Yap1 mRNA as percent of untreated control, A-431 cells, 3-10-3 cEt gapmers targeting SEQ ID NO.: 1, and 2, Table 31
[8] = Table 32, Yap1 mRNA, percent of untreated control, 3-10-3 cEt gapmers targeting SEQ ID NO.: 1, and 2
[9] = Table 21, Yap1 mRNA, percent of untreated control, 3-10-3 cEt gapmers targeting SEQ ID NO.: 1 and 2
[10] = Table 23, Yap1 mRNA as percent of untreated control, 3-10-3 cEt gapmers, single dose
[11] = Table 25, Yap1 mRNA as percent of untreated control, 3-10-3 cEt gapmers targeting SEQ ID NO.: 1, and 2

1075955 (kG*kA*k[5mC]*d[5mC]*dT*dA*dT*dA*dA*dT*dA*d[5mC]*dA*kG*kA*kA; antisense) [compound 1075955]
YAP1 (% UTC) [1]: 85 % UTC

1076389 (kA*kT*k[5mC]*dG*dA*dA*dA*dT*dA*dT*dT*d[5mC]*dG*kA*kG*kA; antisense) [Compound 1076389]
YAP1 (% UTC) [2]: 76 % UTC

716443 (kT*kT*kA*dT*dG*dT*dG*dA*d[5mC]*dT*dA*dA*dT*kG*kA*kT; antisense) [Compound 716443]
YAP1 (% UTC) [3]: 73 % UTC

1075720 (k[5mC]*kT*kT*dT*dA*d[5mC]*dT*dA*d[5mC]*dA*dT*dA*dT*kA*kG*k[5mC]; antisense) [Compound 1075720]
YAP1 (% UTC) [4]: 47 % UTC

1074803 (kA*kG*kG*d[5mC]*dA*d[5mC]*dT*dA*d[5mC]*dA*dT*dT*dT*kA*kG*kA; antisense) [compound 1074803]
YAP1 (% UTC) [1]: 32 % UTC

1075688 (kG*kA*k[5mC]*dA*dA*dT*dA*dA*dA*d[5mC]*dA*dT*d[5mC]*kA*k[5mC]*k[5mC]; antisense) [Compound 1075688]
YAP1 (% UTC) [4]: 12 % UTC

1075621 (kG*kA*kT*dT*dA*dA*d[5mC]*dA*dT*dT*dG*dA*dT*kA*k[5mC]*kT; antisense) [Compound 1075621]
YAP1 (% UTC) [2]: 61 % UTC

716467 (k[5mC]*k[5mC]*kG*dT*dA*dT*dG*d[5mC]*d[5mC]*d[5mC]*dA*dG*dA*kG*kG*kG; antisense) [Compound 716467]
YAP1 (% UTC) [3]: 99 % UTC

716379 (k[5mC]*k[5mC]*kA*dG*dA*dA*dG*dA*dT*dG*dT*d[5mC]*dT*kT*kT*kG; antisense) [Compound 716379]
YAP1 (% UTC) [5]: 123 % UTC

1074533 (antisense kT*kA*kG*dA*dA*d[5mC]*dA*d[5mC]*dT*dA*dA*dA*d[5mC]*kT*kA*k[5mC]) [Compound 1074533]
YAP1 (% UTC) [2]: 80 % UTC

716349 (kA*k[5mC]*kT*dT*dT*dT*dT*d[5mC]*d[5mC]*d[5mC]*dT*d[5mC]*d[5mC]*kA*kA*k[5mC]; antisense) [Compound 716349]
YAP1 (% UTC) [5]: 78 % UTC

1075667 (antisense k[5mC]*kA*kA*dA*dT*dT*dT*dA*dG*dT*dT*dG*dT*kG*k[5mC]*kA) [compound 1075667]
YAP1 (% UTC) [1]: 109 % UTC

1076138 (kA*kG*k[5mC]*d[5mC]*dA*dA*d[5mC]*dA*dA*dT*dT*dT*dT*kT*kG*kG; antisense) [Compound 1076138]
YAP1 (% UTC) [6]: 113 % UTC

1076401 (antisense kT*k[5mC]*kT*dA*dA*dA*dG*dA*d[5mC]*dT*d[5mC]*dT*d[5mC]*kA*kT*kT) [compound 1076401]
YAP1 (% UTC) [7]: 31 % UTC

1075366 (kA*k[5mC]*kA*d[5mC]*dG*dA*dA*dA*dA*dT*dA*dG*dT*kT*k[5mC]*kT; antisense) [Compound 1075366]
YAP1 (% UTC) (Table 20, Yap1 mRNA, percent of untreated control, 3-10-3 cEt gapmers targeting SEQ ID NO.: 1 and 2): 27 % UTC

1075730 (kG*kT*kA*dT*dT*dT*dA*dA*dA*dA*dA*dT*dA*kG*k[5mC]*kG; antisense) [compound 1075730]
YAP1 (% UTC) [8]: 92 % UTC

1075185 (kG*k[5mC]*k[5mC]*d[5mC]*dA*dA*dG*dA*dA*d[5mC]*dA*d[5mC]*dT*kG*kG*kT; antisense) [compound 1075185]
YAP1 (% UTC) [7]: 78 % UTC

1075560 (kG*k[5mC]*kT*dA*dA*dA*dT*dA*dA*dA*dG*dG*dT*kT*kA*k[5mC]; antisense) [Compound 1075560]
YAP1 (% UTC) [4]: 86 % UTC

1074986 (antisense k[5mC]*kT*kA*d[5mC]*dT*dG*dT*dA*dA*dT*d[5mC]*dA*d[5mC]*k[5mC]*kT*kT) [Compound 1074986]
YAP1 (% UTC) [6]: 78 % UTC

1075495 (antisense k[5mC]*kT*kT*dA*dA*dT*dT*dG*dG*dT*dA*dA*d[5mC]*kT*kG*kA) [Compound 1075495]
YAP1 (% UTC) [9]: 19 % UTC

1076169 (k[5mC]*kT*kA*d[5mC]*dT*dA*dT*dA*dT*d[5mC]*dT*dT*dT*kG*kG*kG; antisense) [Compound 1076169]
YAP1 (% UTC) [10]: 10 % UTC

1076165 (k[5mC]*k[5mC]*k[5mC]*d[5mC]*dA*dA*dG*dG*dA*d[5mC]*dT*dT*dG*k[5mC]*k[5mC]*kA; antisense) [Compound 1076165]
YAP1 (% UTC) [2]: 79 % UTC

1074515 (kT*kA*kA*d[5mC]*dT*dG*dG*dA*dA*dA*dG*d[5mC]*dA*kG*kG*kG; antisense) [compound 1074515]
YAP1 (% UTC) [1]: 9 % UTC

1075634 (antisense kA*kG*kA*d[5mC]*dT*dA*dT*dA*dT*dT*dG*dG*d[5mC]*kT*k[5mC]*k[5mC]) [compound 1075634]
YAP1 (% UTC) [8]: 65 % UTC

1074888 (antisense kG*kT*kT*dT*dA*dG*d[5mC]*d[5mC]*dT*dG*dA*dA*dG*k[5mC]*kA*kA) [Compound 1074888]
YAP1 (% UTC) [4]: 58 % UTC

1075281 (antisense k[5mC]*kA*kG*d[5mC]*dA*dA*dA*dA*dG*dT*dA*d[5mC]*d[5mC]*kA*kT*kG) [compound 1075281]
YAP1 (% UTC) [7]: 36 % UTC

1074226 (antisense k[5mC]*kT*kG*dT*d[5mC]*dG*dA*dA*dG*dA*dT*dG*d[5mC]*kT*kG*kA) [compound 1074226]
YAP1 (% UTC) [8]: 10 % UTC

1076356 (k[5mC]*kA*kT*dA*dA*dT*dT*dG*dG*dA*d[5mC]*dT*dG*kT*k[5mC]*kT; antisense) [Compound 1076356]
YAP1 (% UTC) (Table 18, A-431 cells, 5,000 cells per well, free uptake, 2,000 nM modified oligonucleotide, approx. 48 hours, RTS4814, normalized to RIBOGREEN, Yap1 mRNA as percent of untreated control): 99 % UTC

1076008 (kA*kG*k[5mC]*dG*dA*dA*dA*dA*dT*dA*dA*d[5mC]*dA*kT*kT*kA; antisense) [Compound 1076008]
YAP1 (% UTC) [4]: 33 % UTC

1076459 (antisense k[5mC]*kT*kT*d[5mC]*dA*dA*d[5mC]*dA*dA*dG*dA*d[5mC]*dA*kG*kG*kT) [Compound 1076459]
YAP1 (% UTC) [11]: 4 % UTC

716415 (kA*kG*k[5mC]*dT*d[5mC]*d[5mC]*dT*d[5mC]*dT*d[5mC]*d[5mC]*dT*dT*k[5mC]*kT*kA; antisense) [Compound 716415]
YAP1 (% UTC) [5]: 90 % UTC

1075305 (kA*kA*kA*d[5mC]*dG*dA*dA*dA*d[5mC]*dA*d[5mC]*dG*dG*kG*kT*kA; antisense) [Compound 1075305]
YAP1 (% UTC) [10]: 66 % UTC

1074483 (k[5mC]*kA*k[5mC]*dT*dA*dA*dT*dA*dT*dG*dG*dT*d[5mC]*kA*kT*kT; antisense) [compound 1074483]
YAP1 (% UTC) [1]: 15 % UTC

1074536 (antisense kA*kG*kT*dA*dA*dT*dA*dG*d[5mC]*dT*d[5mC]*dT*dT*kT*k[5mC]*kT) [Compound 1074536]
YAP1 (% UTC) [4]: 6 % UTC

716501 (kG*k[5mC]*kA*d[5mC]*dT*dG*dA*dA*dA*dG*dT*dA*d[5mC]*kT*kT*kA; antisense) [Compound 716501]
YAP1 (% UTC) (Table 6, A-431 cells, 5,000 cells per well, free uptake, 2,000 nM modified oligonucleotide, approx. 48 hours, RTS4814, normalized to RIBOGREEN, Yap1 mRNA relative to untreated control cells): 32 % UTC

1074960 (antisense k[5mC]*kT*kT*dA*dA*d[5mC]*d[5mC]*d[5mC]*dG*dG*dG*dT*dT*kT*kT*kT) [compound 1074960]
YAP1 (% UTC) (Yap1 mRNA as percent of untreated control, A-431 cells, 3-10-3 cEt gapmers targeting SEQ ID NO.: 1, and 2, Table 30): 81 % UTC

1076327 (kG*kA*kT*dA*dA*dG*d[5mC]*dA*dA*dG*dG*dT*dT*k[5mC]*kT*k[5mC]; antisense) [Compound 1076327]
YAP1 (% UTC) [9]: 7 % UTC

1075793 (k[5mC]*kA*kT*dT*dA*dG*dT*dT*dG*d[5mC]*d[5mC]*d[5mC]*dT*kG*kA*k[5mC]; antisense) [compound 1075793]
YAP1 (% UTC) [7]: 31 % UTC

716563 (kT*kG*kA*dA*dG*d[5mC]*dA*dA*dG*dT*dT*d[5mC]*dT*k[5mC]*kA*kA; antisense) [Compound 716563]
YAP1 (% UTC) [3]: 126 % UTC

1074219 (antisense kA*kG*kT*d[5mC]*dA*dG*dG*dG*d[5mC]*dT*d[5mC]*d[5mC]*dT*kG*k[5mC]*kA) [Compound 1074219]
YAP1 (% UTC) [11]: 30 % UTC

1075218 (k[5mC]*kT*kT*dA*dA*d[5mC]*dA*d[5mC]*dT*dG*dG*dT*dA*kA*kG*kA; antisense) [compound 1075218]
YAP1 (% UTC) [8]: 97 % UTC

1074962 (antisense kA*kG*kG*d[5mC]*dA*dA*dG*d[5mC]*dA*dG*d[5mC]*dT*dA*kA*kA*kT) [compound 1074962]
YAP1 (% UTC) [8]: 78 % UTC

1076203 (kG*kT*kT*dA*dA*dT*dA*d[5mC]*dA*dT*dG*dG*d[5mC]*k[5mC]*kA*kA; antisense) [Compound 1076203]
YAP1 (% UTC) [11]: 29 % UTC

716571 (kG*k[5mC]*kT*dG*dA*dA*dG*d[5mC]*d[5mC]*dG*dA*dG*dT*kT*k[5mC]*kA) [Compound 716571]
YAP1 (% UTC) (Table 7 (gapmers targeting SEQ ID NO: 3 and 4), A-431 cells, free uptake, 2,000 nM, approximately 48 hours, RTS4814): 91 % UTC

1075429 (antisense k[5mC]*kT*kT*dT*dA*d[5mC]*dT*dA*dT*d[5mC]*dT*dG*dG*kG*kT*k[5mC]) [Compound 1075429]
YAP1 (% UTC) [2]: 23 % UTC
